The results in this text go back to patent US10611730B2, “Benzimidazolone and benzothiazolone compounds and their use as AMPA receptor modulators” (Janssen Pharmaceutica NV, priority 2015, dated 2020).

Structures are written as SMILES.

The target of this experiment is TARP γ8 dependent AMPA receptor (GluA1o-g8 fusion channel) (Homo sapiens (Human), UniProt P42261+Q8WXS5). Briefly: Calcium flux assay (FLIPR), HEK293 cells expressing GRIA1o-CACNG8 fusion. The format is cell-based. To be noted: inhibition of calcium flux after 15 μM glutamate, read-out: GluR1-γ8 pIC50 (converted). The text has this:
This assay was used to test compounds for their ability to inhibit TARP γ8 dependent AMPA receptor activity.
An in vitro assay was used to determine the potency of test compounds as inhibitors of the glutamate response of the channel formed by GluA1o-g8. To ensure a 1:1 stoichiometry of GluA1o and g8 subunits in the expressed channel, a fusion of the cDNAs for GRIA1o and CACNG8 was used. […] A clonal cell line in HEK293 cells stably expressing this construct, with a geneticin selection marker, was generated for use in this assay. Cell expressing the GRIAlo-CACNG8 fusion construct were grown in a monolayer in 96- or 384-well microtiter plates. […] The cells were then loaded with a calcium-sensitive dye (Calcium-5 or Calcium-6, Molecular Devices) and the test compounds at a range of concentrations.
The fluorescence in each well was normalized to the fluorescence of negative and positive control wells. […] The responses to glutamate as functions of the test compound concentrations were fitted to a four-parameter logistic function. The fitted parameter corresponding to the midpoint was taken to be the potency of inhibition of the compound.

Chain of TARP γ8 dependent AMPA receptor (GluA1o-g8 fusion channel) (P42261 other isoform, or with tags, fused parts or gaps): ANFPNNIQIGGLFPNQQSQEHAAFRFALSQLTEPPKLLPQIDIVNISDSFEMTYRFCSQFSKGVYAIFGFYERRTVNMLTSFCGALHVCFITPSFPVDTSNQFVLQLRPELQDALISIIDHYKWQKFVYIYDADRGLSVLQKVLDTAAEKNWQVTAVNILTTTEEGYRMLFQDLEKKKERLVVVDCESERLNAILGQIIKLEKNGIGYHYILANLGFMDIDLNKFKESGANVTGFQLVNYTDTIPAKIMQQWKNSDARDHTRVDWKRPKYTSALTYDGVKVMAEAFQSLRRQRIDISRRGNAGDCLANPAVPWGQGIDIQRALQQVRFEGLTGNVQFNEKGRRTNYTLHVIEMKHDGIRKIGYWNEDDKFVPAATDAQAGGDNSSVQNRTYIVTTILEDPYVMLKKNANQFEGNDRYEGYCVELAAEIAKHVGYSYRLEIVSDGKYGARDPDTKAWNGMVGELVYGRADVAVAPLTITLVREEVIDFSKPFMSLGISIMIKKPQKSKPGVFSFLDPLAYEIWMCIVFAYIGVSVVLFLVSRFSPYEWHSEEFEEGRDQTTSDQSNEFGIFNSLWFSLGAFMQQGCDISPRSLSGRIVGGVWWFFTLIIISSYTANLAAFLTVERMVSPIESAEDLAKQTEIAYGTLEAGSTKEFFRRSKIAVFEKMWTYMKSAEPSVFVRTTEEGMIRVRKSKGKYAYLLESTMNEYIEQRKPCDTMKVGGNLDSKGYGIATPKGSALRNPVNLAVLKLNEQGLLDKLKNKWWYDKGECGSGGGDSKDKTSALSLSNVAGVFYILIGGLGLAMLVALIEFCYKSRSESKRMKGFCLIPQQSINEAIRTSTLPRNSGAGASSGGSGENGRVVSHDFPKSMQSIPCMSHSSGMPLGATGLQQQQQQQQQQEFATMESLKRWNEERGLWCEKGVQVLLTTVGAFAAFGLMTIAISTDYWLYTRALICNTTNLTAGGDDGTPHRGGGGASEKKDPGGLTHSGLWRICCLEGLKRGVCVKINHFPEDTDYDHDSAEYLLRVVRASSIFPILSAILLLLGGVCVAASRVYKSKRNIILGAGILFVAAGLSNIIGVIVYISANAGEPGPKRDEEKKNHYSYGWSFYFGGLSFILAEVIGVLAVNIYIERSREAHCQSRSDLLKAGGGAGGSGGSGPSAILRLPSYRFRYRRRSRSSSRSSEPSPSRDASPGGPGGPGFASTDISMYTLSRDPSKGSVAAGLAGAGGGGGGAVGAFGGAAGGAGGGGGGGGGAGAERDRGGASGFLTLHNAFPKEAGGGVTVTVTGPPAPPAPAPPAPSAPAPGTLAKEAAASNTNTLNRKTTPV

As to `O=c1[nH]c2ccc(-c3cccc(-c4ccncc4)c3Cl)cc2[nH]1` [Example 184, 5-[2-Chloro-3-(4-pyridyl)phenyl]-1,3-dihydrobenzimidazol-2-one], the IC50 was 126 nM.
Under `N#CCc1cccc(-c2ccc3[nH]c(=O)[nH]c3c2)c1Cl` [Example 130, 2-[2-Chloro-3-(2-oxo-1,3-dihydrobenzimidazol-5-yl)phenyl]acetonitrile] stands 2000 nM.
With `O=c1[nH]c2ccc(-c3cccc(C(F)(F)F)c3Cl)cc2[nH]1` [Example 61, 5-[2-Chloro-3-(trifluoromethyl)phenyl]-1,3-dihydrobenzimidazol-2-one] the figure was 39.8 nM; with `COc1cc(OC(F)(F)F)ccc1-c1ccc2[nH]c(=O)[nH]c2c1` [Example 33, 5-[2-Methoxy-4-(trifluoromethoxy)phenyl]-1,3-dihydrobenzimidazol-2-one], 316 nM.
With `O=c1[nH]c2ccc(-c3c(F)cccc3Cl)cc2[nH]1` [Example 53, 5-(2-Chloro-6-fluoro-phenyl)-1,3-dihydrobenzimidazol-2-one] the figure was 251 nM; with `CC(C)Oc1cccc(Cl)c1-c1ccc2[nH]c(=O)[nH]c2c1` [Example 91, 5-(2-Chloro-6-isopropoxy-phenyl)-1,3-dihydrobenzimidazol-2-one], 79.4 nM.
Take `CC(C#N)c1cccc(Cl)c1-c1ccc2[nH]c(=O)[nH]c2c1` (racemic) [Example 126, (±)-2-[3-Chloro-2-(2-oxo-1,3-dihydrobenzimidazol-5-yl)phenyl]propanenitrile]: the IC50 is 12.6 nM.
Under `Cc1ccnc(Cl)c1-c1ccc2[nH]c(=O)[nH]c2c1` [Example 70, 5-(2-Chloro-4-methyl-3-pyridyl)-1,3-dihydrobenzimidazol-2-one] stands 794 nM; under `Cc1cc(Cl)cc(C)c1-c1ccc2[nH]c(=O)[nH]c2c1` [Example 37, 5-(4-Chloro-2,6-dimethyl-phenyl)-1,3-dihydrobenzimidazol-2-one], 794 nM; under `N#CCc1cccc(Cl)c1-c1ccc2[nH]c(=O)sc2c1` [Example 133, 2-[3-Chloro-2-(2-oxo-3H-1,3-benzothiazol-6-yl)phenyl]acetonitrile], 3.16 nM.
In the case of `CC(C)Oc1c(Cl)cccc1-c1ccc2[nH]c(=O)[nH]c2c1` [Example 115, 5-(3-Chloro-2-isopropoxy-phenyl)-1,3-dihydrobenzimidazol-2-one], the IC50 was 2000 nM.
With `N#Cc1cccc(Cl)c1-c1ccc2[nH]c(=O)[nH]c2c1` [Example 56, 3-Chloro-2-(2-oxo-1,3-dihydrobenzimidazol-5-yl)benzonitrile] the figure was 631 nM.
Under `Cc1c(C(=O)Nc2ccccc2)cccc1-c1ccc2[nH]c(=O)[nH]c2c1` [Example 79, 2-Methyl-3-(2-oxo-1,3-dihydrobenzimidazol-5-yl)-N-phenyl-benzamide] stands 794 nM.
Under `COc1cccc(OCC(F)F)c1-c1ccc2[nH]c(=O)[nH]c2c1` [Example 102, 5-[2-(2,2-Difluoroethoxy)-6-methoxy-phenyl]-1,3-dihydrobenzimidazol-2-one] stands 398 nM; under `Cc1c(-c2ccc3[nH]c(=O)[nH]c3c2)cccc1C(F)(F)F` [Example 60, 5-[2-Methyl-3-(trifluoromethyl)phenyl]-1,3-dihydrobenzimidazol-2-one], 79.4 nM.
In the case of `Cc1ccc(C)c(-c2ccc3[nH]c(=O)[nH]c3c2)c1` [Example 21, 5-(2,5-Dimethylphenyl)-1,3-dihydrobenzimidazol-2-one], the IC50 is 398 nM.
Under `O=C(c1ccc(Cl)c(-c2ccc3[nH]c(=O)[nH]c3c2)c1)N1CCCC1` [Example 84, 5-[2-Chloro-5-(pyrrolidine-1-carbonyl)phenyl]-1,3-dihydrobenzimidazol-2-one] stands 7940 nM.
Under `Cc1c(-c2ccc3[nH]c(=O)[nH]c3c2)cccc1-c1ncno1` [Example 199, 5-[2-Methyl-3-(1,2,4-oxadiazol-5-yl)phenyl]-1,3-dihydrobenzimidazol-2-one] stands 63.1 nM; under `C=Cc1cccc(Cl)c1-c1ccc2[nH]c(=O)[nH]c2c1` [Example 161, 5-(2-Chloro-6-vinyl-phenyl)-1,3-dihydrobenzimidazol-2-one], 31.6 nM; under `O=c1[nH]c2ccc(-c3c(Cl)cccc3OCC3CC3(F)F)cc2[nH]1` (racemic) [Example 93, (±)-5-[2-Chloro-6-[(2,2-difluorocyclopropyl)methoxy]phenyl]-1,3-dihydrobenzimidazol-2-one], 20 nM.
Under `C[C@@H](Oc1cccc(Cl)c1-c1ccc2[nH]c(=O)[nH]c2c1)C(F)(F)F` (single isomer, unassigned) [Example 119, (R*)-5-[2-Chloro-6-(2,2,2-trifluoro-1-methyl-ethoxy)phenyl]-1,3-dihydrobenzimidazol-2-one] stands 50.1 nM.
Turning to `O=c1[nH]c2ccc(-c3c(Cl)cccc3OCc3ccccc3)cc2[nH]1` [Example 99, 5-(2-Benzyloxy-6-chloro-phenyl)-1,3-dihydrobenzimidazol-2-one], the IC50 was 63.1 nM.
With `Cc1c(CN2CCOC(C)C2)cccc1-c1ccc2[nH]c(=O)[nH]c2c1` (racemic) [Example 150, (±)-5-[2-Methyl-3-[(2-methylmorpholin-4-yl)methyl]phenyl]-1,3-dihydrobenzimidazol-2-one] the figure was 200 nM; with `Cc1noc(-c2cccc(-c3ccc4[nH]c(=O)sc4c3)c2C)n1` [Example 204, 6-[2-Methyl-3-(3-methyl-1,2,4-oxadiazol-5-yl)phenyl]-3H-1,3-benzothiazol-2-one], 2510 nM.
With `Cc1c(-c2ccc3[nH]c(=O)[nH]c3c2)cccc1-c1ncon1` [Example 206, 5-[2-Methyl-3-(1,2,4-oxadiazol-3-yl)phenyl]-1,3-dihydrobenzimidazol-2-one] the figure was 31.6 nM; with `O=c1[nH]c2ccc(-c3c(F)cccc3OCc3ccccc3)cc2[nH]1` [Example 26, 5-(2-Benzyloxy-6-fluoro-phenyl)-1,3-dihydrobenzimidazol-2-one], 100 nM.
For the compound `Cc1cccc(C#N)c1-c1ccc2[nH]c(=O)[nH]c2c1` [Example 38, 3-Methyl-2-(2-oxo-1,3-dihydrobenzimidazol-5-yl)benzonitrile], the IC50 is 501 nM.
For `Cn1ccc(-c2cccc(-c3ccc4[nH]c(=O)[nH]c4c3)c2Cl)n1` [Example 183, 5-[2-Chloro-3-(1-methylpyrazol-3-yl)phenyl]-1,3-dihydrobenzimidazol-2-one], the IC50 was 1580 nM.
Take `Cc1nc(-c2cccc(-c3ccc4[nH]c(=O)[nH]c4c3)c2C)no1` [Example 71, 5-[2-Methyl-3-(5-methyl-1,2,4-oxadiazol-3-yl)phenyl]-1,3-dihydrobenzimidazol-2-one]: the IC50 is 50.1 nM.
With `CC(C)Oc1ccccc1-c1ccc2[nH]c(=O)[nH]c2c1` [Example 8, 5-(2-Isopropoxyphenyl)-1,3-dihydrobenzimidazol-2-one] the figure was 2000 nM; with `Cc1ccccc1-c1ccc2[nH]c(=O)[nH]c2c1` [Example 3, 5-(o-Tolyl)-1,3-dihydrobenzimidazol-2-one], 1260 nM; with `CC(Oc1cccc(Cl)c1-c1ccc2[nH]c(=O)[nH]c2c1)C(F)(F)F` (racemic) [Example 118, (±)-5-[2-Chloro-6-(2,2,2-trifluoro-1-methyl-ethoxy)phenyl]-1,3-dihydrobenzimidazol-2-one], 31.6 nM.
Regarding `O=c1[nH]c2ccc(-c3cc(Cl)ccc3Cl)cc2[nH]1` [Example 18, 5-(2,5-Dichlorophenyl)-1,3-dihydrobenzimidazol-2-one], the IC50 was 251 nM.
As for `O=c1[nH]c2ccc(-c3ccccc3Cc3ccccc3)cc2[nH]1` [Example 59, 5-(2-Benzylphenyl)-1,3-dihydrobenzimidazol-2-one], the IC50 was 316 nM.
With `O=c1[nH]c2ccc(-c3cc(C(F)(F)F)ccc3Cl)cc2[nH]1` [Example 25, 5-[2-Chloro-5-(trifluoromethyl)phenyl]-1,3-dihydrobenzimidazol-2-one] the figure was 251 nM; with `O=c1[nH]c2ccc(-c3ccc(OC(F)(F)F)cc3Cl)cc2[nH]1` [Example 30, 5-[2-Chloro-4-(trifluoromethoxy)phenyl]-1,3-dihydrobenzimidazol-2-one], 1580 nM; with `Cc1ccc(Cl)c(-c2ccc3[nH]c(=O)[nH]c3c2)c1` [Example 19, 5-(2-Chloro-5-methyl-phenyl)-1,3-dihydrobenzimidazol-2-one], 200 nM.
For the compound `Cc1ccc(OCC(C)C)c(-c2ccc3[nH]c(=O)[nH]c3c2)c1` [Example 15, 5-(2-Isobutoxy-5-methyl-phenyl)-1,3-dihydrobenzimidazol-2-one], the IC50 is 31.6 nM.
Under `COc1cccc(OC(C)C)c1-c1ccc2[nH]c(=O)sc2c1` [Example 77, 6-(2-Isopropoxy-6-methoxy-phenyl)-3H-1,3-benzothiazol-2-one] stands 12.6 nM.
With `Cc1cccc(-c2ccc3[nH]c(=O)[nH]c3c2)c1C` [Example 1, 5-(2,3-Dimethylphenyl)-1,3-dihydrobenzimidazol-2-one] the figure was 251 nM; with `Cc1nnc(-c2cccc(-c3ccc4[nH]c(=O)[nH]c4c3)c2C)o1` [Example 195, 5-[2-Methyl-3-(5-methyl-1,3,4-oxadiazol-2-yl)phenyl]-1,3-dihydrobenzimidazol-2-one], 2510 nM.
